Laboratory results reported in PubChem BioAssay AID248 (DTP/NCI, 2004).
“And” between values parts separate entries of the source, which are not always exact repeats. Identical values can stand only once. Toxic doses and inconclusive results are not listed. Cut-off read from the data, not from the text of the source: active = T/C of 150% or more; inactive = T/C below 125%.

Test system: L1210 leukemia ip in BDF1 mice, survival T/C
Assay: NCI In Vivo Anticancer Drug Screen. Data for tumor model L1210 Leukemia (intraperitoneal) in B6D2F1 (BDF1) mice
Conditions: endpoint: mean survival time, higher = longer survival
How it was run: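 Transplanted-tumor mice were given test agent; controls received vehicle only. Survival readings from the two groups were divided (treated over control).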

[1] = dose: 100.0 mg/kg/injection, schedule: Q04DX003 (ip), vehicle: Klucel (hydroxypropylcellulose) (HPC)
[2] = dose: 200.0 mg/kg/injection, schedule: Q04DX003 (ip), vehicle: Klucel (hydroxypropylcellulose) (HPC)
[3] = dose: 400.0 mg/kg/injection, schedule: Q04DX003 (ip), vehicle: Klucel (hydroxypropylcellulose) (HPC)
[4] = dose: 100.0 mg/kg/injection, schedule: Q01DX001 (ip), vehicle: carboxymethylcellulose (CMC)
[5] = dose: 200.0 mg/kg/injection, schedule: Q01DX001 (ip), vehicle: carboxymethylcellulose (CMC)
[6] = dose: 400.0 mg/kg/injection, schedule: Q01DX001 (ip), vehicle: carboxymethylcellulose (CMC)
[7] = dose: 25.0 mg/kg/injection, schedule: Q01DX009 (ip), vehicle: saline with Tween-80
[8] = dose: 50.0 mg/kg/injection, schedule: Q01DX009 (ip), vehicle: saline with Tween-80
[9] = dose: 100.0 mg/kg/injection, schedule: Q01DX009 (ip), vehicle: saline with Tween-80
[10] = dose: 100.0 mg/kg/injection, schedule: Q04DX003 (ip), vehicle: saline with Tween-80
[11] = dose: 200.0 mg/kg/injection, schedule: Q01DX009 (ip), vehicle: saline with Tween-80
[12] = dose: 200.0 mg/kg/injection, schedule: Q04DX003 (ip), vehicle: saline with Tween-80
[13] = dose: 400.0 mg/kg/injection, schedule: Q01DX009 (ip), vehicle: saline with Tween-80
[14] = dose: 400.0 mg/kg/injection, schedule: Q04DX003 (ip), vehicle: saline with Tween-80

Measured: T/C

CCCCCCCCCCCCNC(=O)c1ccc[n+](C)c1
inactive: dose: 6.25 mg/kg/injection, schedule: Q01DX009 (ip), vehicle: acetone 95 % of control | dose: 6.25 mg/kg/injection, schedule: Q04DX003 (ip), vehicle: saline 91 % of control | dose: 12.5 mg/kg/injection, schedule: Q01DX001 (ip), vehicle: saline 105 % of control | dose: 12.5 mg/kg/injection, schedule: Q01DX009 (ip), vehicle: acetone 98 % of control | dose: 12.5 mg/kg/injection, schedule: Q04DX003 (ip), vehicle: saline 92 % of control and 103 % of control | dose: 25.0 mg/kg/injection, schedule: Q01DX001 (ip), vehicle: saline 104 % of control | dose: 25.0 mg/kg/injection, schedule: Q01DX009 (ip), vehicle: acetone 95 % of control | dose: 25.0 mg/kg/injection, schedule: Q04DX003 (ip), vehicle: saline 94 % of control and 91 % of control | dose: 50.0 mg/kg/injection, schedule: Q04DX003 (ip), vehicle: saline 96 % of control

O=C(O)CSc1cc(Cl)c(Cl)cc1Cl
inactive: dose: 87.5 mg/kg/injection, schedule: Q04DX003 (ip), vehicle: other 100 % of control | dose: 175.0 mg/kg/injection, schedule: Q04DX003 (ip), vehicle: other 110 % of control

COC(=O)CCC(=O)NCCc1cccc(OC)c1
inactive: [1] 97 % of control | [2] 98 % of control | [3] 92 % of control

CCOC(=O)NC(NC(=O)OCC)c1ccc(Cl)c(Cl)c1
inactive: [4] 98 % of control | [5] 98 % of control | [6] 93 % of control

Clc1ccc(C=NCCN=Cc2ccc(Cl)c(Cl)c2)cc1Cl
inactive: [7] 92 % of control | [8] 90 % of control | [9] 103 % of control | [10] 91 % of control | [11] 98 % of control | [12] 91 % of control | [13] 101 % of control | [14] 95 % of control

C=CCc1cnc(SC)[nH]c1=O
inactive: [1] 102 % of control | [2] 97 % of control | [3] 93 % of control

Cc1cc(C)c(CCO)c(C)c1
inactive: dose: 25.0 mg/kg/injection, schedule: Q01DX009 (ip), vehicle: DMSO 98 % of control | dose: 25.0 mg/kg/injection, schedule: Q04DX003 (ip), vehicle: DMSO 93 % of control | dose: 50.0 mg/kg/injection, schedule: Q01DX009 (ip), vehicle: DMSO 96 % of control | dose: 50.0 mg/kg/injection, schedule: Q04DX003 (ip), vehicle: DMSO 102 % of control | dose: 100.0 mg/kg/injection, schedule: Q04DX003 (ip), vehicle: DMSO 102 % of control

Nc1ccc(S(=O)(=O)c2ccc(NCC(=O)O)cc2)cc1
inactive: [8] 105 % of control | [9] 101 % of control | [10] 89 % of control | [11] 92 % of control | [12] 92 % of control

O=S(=O)(Nc1cc(Cl)ccc1Cl)c1ccc(Cl)cc1
inactive: [9] 92 % of control | [11] 102 % of control | [13] 92 % of control

CC1(C)OC2(C)OC1(C)OC2(C)C
inactive: dose: 75.0 mg/kg/injection, schedule: Q01DX009 (ip), vehicle: carboxymethylcellulose (CMC) 100 % of control | dose: 150.0 mg/kg/injection, schedule: Q01DX009 (ip), vehicle: carboxymethylcellulose (CMC) 103 % of control | dose: 300.0 mg/kg/injection, schedule: Q01DX009 (ip), vehicle: carboxymethylcellulose (CMC) 105 % of control

NC(N)=N/N=C\c1ccc(C2CCNCC2)cc1
inactive: dose: 15.0 mg/kg/injection, schedule: Q01DX Z (ip), vehicle: methylcellulose (MC) 107 % of control | dose: 15.0 mg/kg/injection, schedule: Q01DX Z (oral), vehicle: methylcellulose (MC) 110 % of control | dose: 30.0 mg/kg/injection, schedule: Q01DX Z (ip), vehicle: methylcellulose (MC) 108 % of control | dose: 30.0 mg/kg/injection, schedule: Q01DX Z (oral), vehicle: methylcellulose (MC) 100 % of control | dose: 60.0 mg/kg/injection, schedule: Q01DX Z (oral), vehicle: methylcellulose (MC) 104 % of control

C=CCCN(c1ccc(C(=O)OCC)cc1)S(=O)(=O)c1ccc(C)cc1
inactive: dose: 50.0 mg/kg/injection, schedule: Q01DX001 (ip), vehicle: carboxymethylcellulose (CMC) 102 % of control | [4] 100 % of control | [5] 107 % of control | [6] 96 % of control

CCCCCCCCCCCCCCCCCCNC(=O)N(CC)c1ccccc1
inactive: dose: 100.0 mg/kg/injection, schedule: Q01DX009 (ip), vehicle: Klucel (hydroxypropylcellulose) (HPC) 101 % of control | [1] 93 % of control | dose: 200.0 mg/kg/injection, schedule: Q01DX009 (ip), vehicle: Klucel (hydroxypropylcellulose) (HPC) 98 % of control | [2] 101 % of control | dose: 400.0 mg/kg/injection, schedule: Q01DX009 (ip), vehicle: Klucel (hydroxypropylcellulose) (HPC) 106 % of control | [3] 92 % of control

O=C(O)c1c(Cl)c(Cl)c(Cl)c(Cl)c1-c1c2ccc(=O)c(O)c-2oc2c(O)c(O)ccc12
inactive: dose: 100.0 mg/kg/injection, schedule: Q04DX003 (ip), vehicle: saline 102 % of control | dose: 200.0 mg/kg/injection, schedule: Q04DX003 (ip), vehicle: saline 93 % of control

O=C(Nc1ccc(C2=NCCN2)cc1)c1cc(C(=O)Nc2ccc(C3=NCCN3)cc2)cc(C(=O)Nc2ccc(C3=NCCN3)cc2)c1
inactive: dose: 4.3 mg/kg/injection, schedule: Q01DX Z (ip), vehicle: saline 95 % of control | dose: 6.4 mg/kg/injection, schedule: Q01DX Z (ip), vehicle: saline 93 % of control | dose: 9.7 mg/kg/injection, schedule: Q01DX Z (ip), vehicle: saline 97 % of control and 92 % of control | dose: 15.0 mg/kg/injection, schedule: Q01DX Z (ip), vehicle: saline 92 % of control | dose: 22.0 mg/kg/injection, schedule: Q01DX Z (ip), vehicle: saline 88 % of control | dose: 33.0 mg/kg/injection, schedule: Q01DX Z (ip), vehicle: saline 97 % of control | dose: 111.0 mg/kg/injection, schedule: Q01DX Z (ip), vehicle: saline 93 % of control | dose: 166.0 mg/kg/injection, schedule: Q01DX Z (ip), vehicle: saline 90 % of control | dose: 250.0 mg/kg/injection, schedule: Q01DX Z (ip), vehicle: saline 87 % of control | dose: 375.0 mg/kg/injection, schedule: Q01DX Z (ip), vehicle: saline 88 % of control

Nc1c(Br)c(Cl)cc2c1-c1ccc(Cl)cc1C2S (stereo unspecified)
inactive: [4] 104 % of control | [5] 95 % of control | [6] 90 % of control

CC(CC(=O)O)Nc1ccc(Cl)c(Cl)c1 (stereo unspecified)
inactive: [7] 100 % of control | [8] 102 % of control | [9] 94 % of control | [10] 107 % of control | [12] 96 % of control

O=[N+]([O-])C1CC(O)CCC1SSC1CCC(O)CC1[N+](=O)[O-] (stereo unspecified)
inactive: dose: 100.0 mg/kg/injection, schedule: Q04DX002 (ip), vehicle: other 106 % of control | dose: 200.0 mg/kg/injection, schedule: Q04DX002 (ip), vehicle: other 103 % of control | dose: 400.0 mg/kg/injection, schedule: Q04DX002 (ip), vehicle: other 98 % of control

CC1N(N=O)CC1(Cl)c1ccccc1 (stereo unspecified)
inactive: dose: 100.0 mg/kg/injection, schedule: Q04DX002 (ip), vehicle: saline 98 % of control | dose: 200.0 mg/kg/injection, schedule: Q04DX002 (ip), vehicle: saline 98 % of control | dose: 400.0 mg/kg/injection, schedule: Q04DX002 (ip), vehicle: saline 102 % of control

CCCC(=O)Nc1ccc(Cl)c(Cl)c1
inactive: [10] 98 % of control | [12] 102 % of control | [14] 89 % of control

ClCSc1ccccc1
inactive: dose: 100.0 mg/kg/injection, schedule: Q04DX003 (ip), vehicle: other 100 % of control | dose: 200.0 mg/kg/injection, schedule: Q04DX003 (ip), vehicle: other 104 % of control | dose: 400.0 mg/kg/injection, schedule: Q04DX003 (ip), vehicle: other 102 % of control
